# Data as given in EP4603105A1, “PHARMACEUTICAL COMPOSITION CONTAINING CYCLIC COMPOUND HAVING SELECTIVE KRAS INHIBITORY EFFECT AGAINST HRAS AND NRAS” (CHUGAI SEIYAKU KABUSHIKI KAISHA, priority 2022, dated 2024).
# *1 amine or outer side, *2 acyl side, *3 side chain or, on linkers, in order; H or OH if unused. Where a SMILES comes first, the peptide text is derived from it. Bridges are numbered along the chain shown (N, C = ends). [ ]: non-standard residue; d: D form. The star is where a group is joined. hPhe(3-Cl-4-CF3) = N[C@@H](CCc1ccc(C(F)(F)F)c(Cl)c1)C(=O)O; X51 = CCCN([C@@H](Cc1ccc(OC(F)(F)F)cc1)C(=O)[*:2])[*:1]; NPrPhe(4-CF3) = CCCN[C@@H](Cc1ccc(C(F)(F)F)cc1)C(=O)O; X37 = Cc1ccc(C[C@@H](C(=O)[*:2])N(CCC(C)C)[*:1])cc1; X44 = Cc1ccc(C[C@@H](C(=O)[*:2])N(CC2CCC2)[*:1])cc1; NMeGly(cPent) = CN[C@H](C(=O)O)C1CCCC1; Hyp = O=C(O)[C@@H]1C[C@@H](O)CN1; NMeD = CN[C@@H](CC(=O)O)C(=O)O; NMeL = CN[C@@H](CC(C)C)C(=O)O; Morpholide = C1CN(*)CCO1; NMeA = CN[C@@H](C)C(=O)O; Ac5c = NC1(C(=O)O)CCCC1; Aze = O=C(O)[C@@H]1CCN1; Ac4c = NC1(C(=O)O)CCC1; Sar = CNCC(=O)O
# How the values were obtained:
# [1] = tested on: human lung cancer strain NCI-H441; format: cell-based
# Method: A test compound was dispensed into a U-bottom 384-well plate as 40 nL serially diluted dimethyl sulfoxide solutions using a liquid handler Echo (LABCYTE). […] This cell suspension was dispensed in an amount of 40 µL per well into a plate containing the test compound, and cultured at 37°C in a 5% carbon dioxide gas incubator. Four days later, 20 µL of CellTiter-Glo (registered trademark) (Promega) was added to each well and […] was measured. […]
# [2] = molecular target: GDP-bound NRAS wild-type protein (Homo sapiens, UniProt P01111); assay: Binding to NRAS by surface plasmon resonance (SPR), KD and KD ratio to KRAS; conditions: ratio of KD for GDP-bound NRAS wild-type protein to KD for KRAS
# Chain of GDP-bound NRAS wild-type protein (P01111 whole entry): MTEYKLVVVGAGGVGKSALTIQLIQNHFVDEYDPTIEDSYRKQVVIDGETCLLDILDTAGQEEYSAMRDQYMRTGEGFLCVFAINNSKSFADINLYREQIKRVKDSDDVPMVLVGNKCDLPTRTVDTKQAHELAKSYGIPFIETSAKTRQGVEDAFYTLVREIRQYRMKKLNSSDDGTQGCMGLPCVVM
# Method: (§1) Surface plasmon resonance was used to analyze the binding affinity of compounds for KRAS, NRAS, and HRAS. The apparatus used was Biacore 8K, 8K+, or T200 (GE Healthcare), and the running buffer used was HBS (10 mM HEPES-NaOH, 150 mM NaCl, pH 7.4) containing 1 mM DTT, 10 mM MgCl2, 0.01% Tween 20, 10 µM GDP, and 4% DMSO.
# (§2) Biotinylated Avi-tag fusion KRAS, NRAS, and HRAS proteins were expressed in E. coli BL21 (DE3) strains, and after cells were homogenized, they were purified using Streptavidin Mutein Matrix and Superdex 75. After purification, GDP-loaded KRAS, NRAS, and HRAS proteins were immobilized on the surface of Sensor Chip CAP (Cytiva) coated with Biotin CAPture Reagent in an immobilization amount of about 100 to 300 RU. Binding of each compound was evaluated by the Single Cycle Kinetics method, and a running buffer or a compound solution was added to the RAS protein non-immobilized surface and the immobilized surface to obtain a binding response. The flow rate was set to 100 µL/min, and in the compound-adding cycle, compound solutions having different concentrations were intermittently added for 75 seconds each, starting from a low concentration. […] In the blank cycle, a running buffer was intermittently added and not the compound solution. The Biotin CAPture Reagent and RAS proteins were immobilized for each cycle, and at the end of each cycle, the sensor chip was regenerated by the regeneration solution appended to the Biotin CAPture Kit (Cytiva). Measurement was carried out at 30°C.
# (§3) The resulting sensorgram was subjected to curve fitting based on a 1:1 binding model on Biacore Insight Evaluation Software or T200 Evaluation Software, and thereby the dissociation constant KD of each compound with respect to KRAS, NRAS, and HRAS was determined. […] Blank indicates a compound from which the KD value with respect to NRAS or HRAS was not obtained.
# HRAS wild-type protein = HRAS wild-type protein (Homo sapiens, UniProt P01112); assay: Binding to HRAS by surface plasmon resonance (SPR), KD and KD ratio to KRAS; conditions: ratio of KD for HRAS wild-type protein to KD for KRAS
# Chain of HRAS wild-type protein (P01112 whole entry): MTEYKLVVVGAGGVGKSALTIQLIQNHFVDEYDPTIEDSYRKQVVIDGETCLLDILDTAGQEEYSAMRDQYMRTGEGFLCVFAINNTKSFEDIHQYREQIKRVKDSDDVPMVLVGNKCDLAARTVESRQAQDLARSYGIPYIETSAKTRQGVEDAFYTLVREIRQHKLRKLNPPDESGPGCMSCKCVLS
# Method: as §1, §2, §3
SMILES,IC50 [1],NRAS /KRAS [2],HRAS /KRAS (HRAS wild-type protein)
CC[C@H](C)[C@@H]1NC(=O)[C@H](CC2CC2)N(C)C(=O)C[C@@H](C(=O)N(C)CC)N(C)C(=O)[C@H](C2CCCC2)N(C)C(=O)C2(CCC2)NC(=O)[C@@H]2C[C@@H](C)CN2C(=O)[C@H](CCc2ccc(C(F)(F)F)c(OC)c2)NC(=O)CN(C)C(=O)[C@H](Cc2ccc(C)cc2)N2CC/C=C\C[C@@H](C2=O)N(C)C(=O)CN(C)C1=O [PP1900],24.7 nM,–,–
CC[C@H](C)[C@@H]1NC(=O)[C@H](CC)N(C)C(=O)C[C@@H](C(=O)N(C)CC)N(C)C(=O)[C@H](C2CCCC2)N(C)C(=O)C2(CCC2)NC(=O)[C@@H]2C[C@H](C)CN2C(=O)[C@H](CCc2ccc(C(F)(F)F)c(OC)c2)NC(=O)CN(C)C(=O)[C@H](Cc2ccc(C)cc2)N2CC/C=C\C[C@@H](C2=O)N(C)C(=O)CN(C)C1=O [PP1853],30.4 nM,–,–
CCO[C@@H]1C[C@H]2C(=O)NC3(CC(C)(C)C3)C(=O)N(C)[C@@H](C3CCCC3)C(=O)N(C)[C@H](C(=O)N3CCCCC3)CC(=O)N(C)[C@H]3CCCCc4ccc(cc4)C[C@@H](C(=O)N(C)CC(=O)N[C@@H](CCc4ccc(C(F)(F)F)c(OC)c4)C(=O)N2C1)N1CC/C=C\C[C@@H](C1=O)N(C)C(=O)CN(C)C(=O)[C@H]([C@@H](C)CC)NC3=O [PP3093],–,A (a compound having 10 or more and less than 20 is denoted as A),A (a compound having 10 or more and less than 20 is denoted as A)
CCCN1C(=O)[C@@H]2CCN2C(=O)[C@H](C)N(C)C(=O)[C@H]([C@@H](C)CC)NC(=O)[C@H](CC(C)C)N(C)C(=O)C[C@@H](C(=O)N2CCOCC2)N(C)C(=O)[C@H](C2CCCC2)N(C)C(=O)C2(CCCC2)NC(=O)[C@@H]2CCCN2C(=O)[C@H](CCc2ccc(C(F)(F)F)c(Cl)c2)NC(=O)CN(C)C(=O)[C@@H]1Cc1ccc(OC(F)(F)F)cc1 [PP0136] ([NMeL]I[NMeA][Aze][X51][Sar][hPhe(3-Cl-4-CF3)]P[Ac5c][NMeGly(cPent)][NMeD]-Morpholide; lactam N-11),19.6 nM,–,–
CCC[C@H]1C(=O)N[C@@H]([C@@H](C)CC)C(=O)N(C)CC(=O)N(C)[C@H]2C/C=C\CCN(C2=O)[C@@H](Cc2ccc(C)cc2)C(=O)N(C)CC(=O)N[C@@H](CCc2ccc(C(F)(F)F)c(Cl)c2)C(=O)N2C[C@H](C)C[C@H]2C(=O)NC2(CCC2)C(=O)N(C)[C@@H](C2CCCC2)C(=O)N(C)[C@H](C(=O)N(C)CC)CC(=O)N1C [PP1850],49.1 nM,–,–
CC[C@H](C)[C@@H]1NC(=O)[C@H](CC(C)C)N(C)C(=O)C[C@@H](C(=O)N2CCOCC2)N(C)C(=O)[C@H](C2CCCC2)N(C)C(=O)C2(CCCC2)NC(=O)[C@@H]2CCCN2C(=O)[C@H](CCc2ccc(C(F)(F)F)c(Cl)c2)NC(=O)CN(C)C(=O)[C@H](Cc2ccc(C)cc2)N(CC2CCC2)C(=O)[C@@H]2CCN2C(=O)[C@H](C)N(C)C1=O [PP0083] ([NMeL]I[NMeA][Aze][X44][Sar][hPhe(3-Cl-4-CF3)]P[Ac5c][NMeGly(cPent)][NMeD]-Morpholide; lactam N-11),11.3 nM,–,–
CCC[C@H]1C(=O)N[C@@H]([C@@H](C)CC)C(=O)N(C2CC2)CC(=O)N(C)[C@H]2C/C=C\CCN(C2=O)[C@@H](Cc2ccc(C)cc2)C(=O)N(C)CC(=O)N[C@@H](CCc2ccc(C(F)(F)F)c(C3CC3)c2)C(=O)N2C[C@H](OCC)C[C@H]2C(=O)NC2(CC(C)(C)C2)C(=O)N(C)[C@@H](C2CCCC2)C(=O)N(C)[C@H](C(=O)N(C)C)CC(=O)N1C [PP2881],–,A (a compound having 10 or more and less than 20 is denoted as A),A (a compound having 10 or more and less than 20 is denoted as A)

# Second part, led by results:
IC50 [1],SMILES,NRAS /KRAS [2],HRAS /KRAS (HRAS wild-type protein)
320 nM,CCO[C@@H]1C[C@H]2C(=O)NC3(CCC3)C(=O)N(C)[C@@H](C(CC)CC)C(=O)N(C)[C@H](C)CC(=O)N(C)[C@@H](CC3CCCC3)C(=O)N[C@@H]([C@@H](C)CC)C(=O)N(C)CC(=O)N(C)[C@H]3C/C=C\CCN(C3=O)[C@@H](Cc3ccc(F)cc3)C(=O)N(C)CC(=O)N[C@@H](CCc3cc(F)c(C(F)(F)F)c(F)c3)C(=O)N2C1 [PP1523],–,–
13.4 nM,CCCN1C(=O)CN(C)C(=O)CN(C)C(=O)[C@H]([C@@H](C)CC)NC(=O)[C@H](CC(C)C)N(C)C(=O)C[C@@H](C(=O)N2CCOCC2)N(C)C(=O)[C@H](C2CCCC2)N(C)C(=O)C2(CCCC2)NC(=O)[C@@H]2CCCN2C(=O)[C@H](CCc2ccc(C(F)(F)F)c(Cl)c2)NC(=O)CN(C)C(=O)[C@@H]1Cc1ccc(OC(F)(F)F)cc1 [PP0137] ([NMeL]I[Sar][Sar][X51][Sar][hPhe(3-Cl-4-CF3)]P[Ac5c][NMeGly(cPent)][NMeD]-Morpholide; lactam N-11),–,–
4.5 nM,CCO[C@@H]1C[C@H]2C(=O)NC3(CCC3)C(=O)N(C)[C@@H](C3CCCC3)C(=O)N(C)[C@H](C(=O)N(C)CC)CC(=O)N(C)[C@@H](C(C)C)C(=O)N[C@@H]([C@@H](C)CC)C(=O)N(C)CC(=O)N(C)[C@H]3C/C=C\CCN(C3=O)[C@@H](Cc3ccc(C(F)(F)F)cc3)C(=O)N(C)CC(=O)N[C@@H](CCc3ccc(C(F)(F)F)c(OC)c3)C(=O)N2C1 [PP2019],–,–
15.2 nM,CCCN1C(=O)[C@@H]2CCN2C(=O)CN(C)C(=O)[C@H]([C@@H](C)CC)NC(=O)[C@H](CC(C)C)N(C)C(=O)C[C@@H](C(=O)N(C)C)NC(=O)[C@H](C2CCCC2)N(C)C(=O)C2(CCCC2)NC(=O)[C@@H]2CCCN2C(=O)[C@H](CCc2ccc(C(F)(F)F)c(Cl)c2)NC(=O)CN(C)C(=O)[C@@H]1Cc1ccc(C(F)(F)F)cc1 [PP0385] ([NMeL]I[Sar][Aze][NPrPhe(4-CF3)][Sar][hPhe(3-Cl-4-CF3)]P[Ac5c][NMeGly(cPent)]D-NMe2; lactam N-11),–,–
22.6 nM,CC[C@H](C)[C@@H]1NC(=O)[C@H](CC2CC2)N(C)C(=O)C[C@@H](C(=O)N(C)CC)N(C)C(=O)[C@H](C2CCCC2)N(C)C(=O)C2(CCC2)NC(=O)[C@@H]2C[C@H](C)CN2C(=O)[C@H](CCc2ccc(C(F)(F)F)c(OC)c2)NC(=O)CN(C)C(=O)[C@H](Cc2ccc(C)cc2)N2CC/C=C\C[C@@H](C2=O)N(C)C(=O)CN(C)C1=O [PP1897],–,–
15.7 nM,CCCN(C)C(=O)[C@@H]1CC(=O)N(C)[C@@H](COCC)C(=O)N[C@@H]([C@@H](C)CC)C(=O)N(C)CC(=O)N(C)[C@H]2C/C=C\CCN(C2=O)[C@@H](Cc2ccc(C(F)(F)F)cc2)C(=O)N(C)CC(=O)N[C@@H](CCc2cc(F)c(C(F)(F)F)c(F)c2)C(=O)N2C[C@@H](C)C[C@H]2C(=O)NC2(CCC2)C(=O)N(C)[C@@H](C2CCCC2)C(=O)N1C [PP2002],–,–
9.4 nM,CC[C@H](C)[C@@H]1NC(=O)[C@H](CC(C)C)N(C)C(=O)C[C@@H](C(=O)N2CCOCC2)N(C)C(=O)[C@H](C2CCCC2)N(C)C(=O)C2(CCCC2)NC(=O)[C@@H]2CCCN2C(=O)[C@H](CCc2ccc(C(F)(F)F)c(Cl)c2)NC(=O)CN(C)C(=O)[C@H](Cc2ccc(C)cc2)N(CCC(C)C)C(=O)CN(C)C(=O)CN(C)C1=O [PP0098] ([NMeL]I[Sar][Sar][X37][Sar][hPhe(3-Cl-4-CF3)]P[Ac5c][NMeGly(cPent)][NMeD]-Morpholide; lactam N-11),–,–
9.6 nM,CCO[C@@H]1C[C@H]2C(=O)NC3(CC(C)(C)C3)C(=O)N(C)[C@@H](C3CCCC3)C(=O)N(C)[C@H](C(=O)N(C)CC)CC(=O)N(C)[C@@H]([C@@H](C)OC)C(=O)N[C@@H]([C@@H](C)CC)C(=O)N(C)CC(=O)N(C)[C@H]3C/C=C\CCN(C3=O)[C@@H](Cc3ccc(C(F)(F)F)cc3)C(=O)N(C)CC(=O)N[C@@H](CCc3ccc(C(F)(F)F)c(Cl)c3)C(=O)N2C1 [PP3162],–,–
0.7 nM,CCCN1C(=O)[C@@H]2CCN2C(=O)[C@H](C)N(C)C(=O)[C@H]([C@@H](C)CC)NC(=O)[C@H](CC(C)C)N(C)C(=O)C[C@@H](C(=O)N(C)C)N(C)C(=O)[C@H](C2CCCC2)N(C)C(=O)C2(CCC2)NC(=O)[C@@H]2C[C@@H](OCC)CN2C(=O)[C@H](CCc2ccc(C(F)(F)F)c(Cl)c2)NC(=O)CN(C)C(=O)[C@@H]1Cc1ccc(C(F)(F)F)cc1 [PP0439] ([NMeL]I[NMeA][Aze][NPrPhe(4-CF3)][Sar][hPhe(3-Cl-4-CF3)][Hyp](Et)[Ac4c][NMeGly(cPent)][NMeD]-NMe2; lactam N-11),–,–
11.8 nM,CCCN(C)C(=O)[C@@H]1CC(=O)N(C)[C@@H](CCOC)C(=O)N[C@@H]([C@@H](C)CC)C(=O)N(C)CC(=O)N(C)[C@H]2C/C=C\CCN(C2=O)[C@@H](Cc2ccc(C(F)(F)F)cc2)C(=O)N(C)CC(=O)N[C@@H](CCc2cc(F)c(C(F)(F)F)c(F)c2)C(=O)N2C[C@H](OCC)C[C@H]2C(=O)NC2(CC(C)(C)C2)C(=O)N(C)[C@@H](C2CCCC2)C(=O)N1C [PP2033],–,–
